Converted amounts (≈) assume the structure as drawn. “And” between values parts separate entries of the source, which are not always exact repeats. Equal values may be shown once. Each block holds one compound with its values, some of them ahead of it.
Tests used:
[1] = system: Geotrichum; test: MIC, macro broth dilution technique (NCCLS) on patient fungal isolates; format: cell-based; details: 48 hour MIC reading; isolate from rhinosinusitis patient
Description: (§1) The following procedure was used to determine effective antifungal agents as well as effective concentrations of antifungal agents such that the fungal organisms isolated from patients can be prevented from growing or killed.
(§2) Seventeen fungal isolates were collected from eight rhinosinusitis patients and tested for susceptibility against amphotericin B, ketoconazole, and itraconazole. Each antifungal agent was tested on these fungal isolates using the macro broth dilution technique according to the National Committee on Clinical Laboratory Standards (NCCLS) protocol. […] The results from this procedure provided an estimate of the efficacy of antifungal agents against specific fungal isolates in vitro.

[2] = system: Trichoderma; test: as above; format: cell-based; details: 48 hour MIC reading; isolate from rhinosinusitis patient
Description: as §1, §2

[3] = system: non-invasive fungus-induced rhinosinusitis patients; test: Amphotericin B nasal irrigation study, three month follow-up (Example 2); format: in vivo, human
Text: In addition to patient interviewing, CT scan analysis, visual examination, and fungal culture analysis, two types of evaluations were used to score the success of the treatment: an endoscopic evaluation and a patient symptom evaluation. These evaluations were scored as follows:
(§3) Stage 0: no evidence of disease
(§4) Stage 1: polypoid changes/polyps seen by endoscopy only
(§5) Stage 2: polyps in the middle meatus
(§6) Stage 3: polyps filling the nasal cavity
(§7) Patient Symptom Evaluation
(§8) Stage −2: very bad/much worse
(§9) Stage 0: baseline/no change
(§10) Stage 2: very good/free of symptoms

[4] = system: fungal organisms within their mucus; test: Examination of mucus samples of non-responding patients for resistance; format: cell-based; details: five of the nine non-responding patients with available samples, all five
Text: Eleven of the 53 patients went from endoscopic evaluation stage 2 or 3 to stage 1 after three months. […] Five of the nine non-responding patients had previously collected mucus samples that were available for examination.

[5] = system: rhinosinusitis patient; test: Single patient study, one-sided then two-sided amphotericin B irrigation, RAST assay to Alternaria; format: in vivo, human
[6] = system: non-invasive fungus-induced rhinosinusitis patients; test: Patients returning during a one week period on amphotericin B nasal irrigations (Table II); format: in vivo, human; design: key to Endoscopy Score A: endoscopy stage 0 = no disease to 3 = polyps filling nasal cavity; details: A = after antifungal treatment, one patient per line
Text: as §3, §4, §5, §6, §7, §8, §9, §10
Only previously seen patients that were instructed to use the antifungal amphotericin B nasal irrigations were entered into this study.
During a one week period, twenty patients returned to the physician's office (Table II). The average age of the returning patients was 47 years (range 16-74 years). The patients were using the amphotericin B irrigations for an average duration of about six months (range 1-16 months). […] In addition, some patients were using topical and systemic steroid therapy. Further, some patients were using an antibiotic nasal irrigation in addition to the antifungal irrigations. The antibacterial solution contained 80 mg gentamicin per L saline (Wilson's solution). Some patients mixed the antibacterial solution with the antifungal solution and then performed the nasal irrigations while others used each solution separately in a sequential manner. Some patients also had other diseases including asthma (15 of the 20 patients) and colitis (2 of the 20 patients).

[7] = system: non-invasive fungus-induced rhinosinusitis patients; test: Amphotericin B irrigations in patients without previous nasal surgery (Example 3); format: in vivo, human; details: patient; for symptom score after treatment: score −1 before
Text: A person was diagnosed with non-invasive fungus-induced rhinosinusitis and instructed to perform amphotericin B irrigations twice a day.
A person was diagnosed with non-invasive fungus-induced rhinosinusitis and instructed to perform amphotericin B irrigations twice a day, which was later increased to four times a day.
A person was diagnosed with non-invasive fungus-induced rhinosinusitis and instructed to perform amphotericin B irrigations twice a day. This patient had been given intramuscular steroid shots every 3 to 8 months with the last shot being administered about seven months prior to starting the amphotericin B irrigations.

[8] = system: non-invasive fungus-induced rhinosinusitis patient; test: Eosinophil count in mucosal biopsies after antifungal treatment (Example 4); format: in vivo, human; details: person
[9] = system: patients with previously diagnosed chronic asthma; test: Chronic asthma symptoms in patients of the Example 2 study (Example 5); format: in vivo, human
[10] = system: non-invasive fungus-induced rhinosinusitis patients; test: Itraconazole nasal irrigations in rhinosinusitis patients (Example 7); format: in vivo, human
Description: Three non-invasive fungus-induced rhinosinusitis patients (person, person, and person) were instructed to perform nasal irrigation with an itraconazole solution. The itraconazole solution contained about 100 mg of itraconazole per L of solution (10% PEG-400 in sterile water) and was prepared as described herein. […] Each patient reported marked improvement in symptoms within two weeks of starting the itraconazole irrigations (symptom scores: −1 to +2 and −1 to +1).
After treatment with itraconazole, that patient reported symptom improvement (symptom score: from −1 to 0).

[11] = system: Penicillium; test: MIC, macro broth dilution technique (NCCLS) on patient fungal isolates; format: cell-based; details: 48 hour MIC reading; isolates from rhinosinusitis patients; one isolate per table line
Description: as §1, §2

[12] = system: chronic asthma patient; test: Itraconazole nasal irrigations in an asthma patient, symptoms and pulmonary function (Example 8); format: in vivo, human
Description: Sputum and nasal-paranasal mucus samples were collected and analyzed.
The concentration of the itraconazole solution was about 100 mg per liter. After a few weeks, the patient took their last course of systemic steroids. About two months after stopping the systemic steroids, the patient also stopped using the topical steroids as well as the bronchodilator.

[13] = Oral itraconazole capsule, fraction remaining in the bowel lumen (Example 10); format: in vivo, human; details: 100 mg capsule before bedtime, at least two hours after last meal, without cola
Text: Three out of five consecutive patients with chronic rhinosinusitis reported having a history of colitis. […] Each patient was instructed to take the capsule before bedtime a minimum of two hours after their last meal and without any cola. Food and cola beverages increase absorption of the drug.

[14] = system: Cladosporium; test: MIC, macro broth dilution technique (NCCLS) on patient fungal isolates; format: cell-based; details: 48 hour MIC reading; isolates from rhinosinusitis patients; one isolate per table line
Description: as §1, §2

[15] = after three months, about 20 mL of 100 mg/L solution per nostril two to four times daily
[16] = after treatment, three month follow-up
[17] = sixteen days after starting itraconazole irrigations, score 1 before
[18] = after seven months versus before treatment

SMILES: C[C@@H]1[C@H](O)[C@@H](C)/C=C/C=C/C=C/C=C/C=C/C=C/C=C/[C@H](O[C@@H]2O[C@H](C)[C@@H](O)[C@H](N)[C@@H]2O)C[C@@H]2O[C@](O)(C[C@@H](O)C[C@@H](O)[C@H](O)CC[C@@H](O)C[C@@H](O)CC(=O)O[C@H]1C)C[C@H](O)[C@H]2C(=O)O [Amphotericin B, amphotericin B]
MIC [1]: 0.1 µg/mL (≈ 0.108 µM)
MIC [2]: 4 µg/mL (≈ 4.33 µM)
CT scan finding, patient with bilateral rhinosinusitis ([3]; after four months, 20 mL of 100 mg/L solution per nostril two times daily, no recent surgery, no steroids, FIG. 1 and 2): complete disappearance of opacity and symptoms characteristic of rhinosinusitis
number of the 33 stage 0 cases confirmed by CT scans ([3]; after three months): Six
number of the 53 patients that went from endoscopic evaluation stage 2 or 3 to stage 0 (no evidence of disease) [3, 15]: 33
number of the 53 patients that went from endoscopic evaluation stage 2 or 3 to stage 1 [3, 15]: Eleven
number of the 53 patients that did not respond to the treatment ([3]; after three months, endoscopic evaluation): nine
number of the 53 patients giving themselves symptom stage 0 (baseline/no change) [3, 16]: six
number of the 53 patients giving themselves symptom stage 1 (good/improved) [3, 16]: three
number of the 53 patients giving themselves symptom stage 2 (very good/free of symptoms) [3, 16]: 44
number of different fungal species in mucus after versus before antifungal treatment ([3]; several patients, fungal organism culturing, amphotericin B irrigation of Example 2): remarkably reduced
susceptibility of fungal organisms in mucus of non-responding patients [4]: resistant
state of left paranasal sinuses at every post-operative visit ([5]; left side surgery plus intra- and post-operative irrigation): clear of disease
symptoms after treatment of both sides ([5]; right side surgery and irrigation of both sides for about seven weeks): symptom-free
Endoscopy Score A ([6]; irrigations 1-16 months, 1-2 x day, 0 no evidence of disease, 1 polypoid changes/polyps by endoscopy only, 2 polyps in middle meatus, 3 polyps filling nasal cavity): 0 (10×) and 3 (5×) and 1 (2×)
Symptom Score A ([6]; −2 very bad/much worse, −1 bad/worse, 0 baseline/no change, 1 good/improved, 2 very good/free of symptoms): +1 (6×) and +2 (6×) and 0 (6×) and −2 and 1
endoscopic score after treatment ([7]; irrigations twice a day for four months, score 0 before): 0
symptom score after treatment ([7]; irrigations twice a day for four months): +1
endoscopic score after treatment ([7]; irrigations twice a day for fourteen months, score 3 before): 0
symptom score after treatment ([7]; irrigations twice a day for fourteen months): +2
endoscopic score after treatment ([7]; irrigations twice, later four times a day, sixteen months, score 1 before): 0
symptom score after treatment ([7]; irrigations twice, later four times a day, sixteen months): +2
eosinophil count in mucosal biopsies, all sinuses except the frontal ([8]; after nine months of irrigations twice a day): < 5%
eosinophil count in the frontal sinus biopsy ([8]; after nine months of irrigations, frontal sinus obstructed, presumably not reached): 10%
number of the 28 patients that stopped taking their asthma medication ([9]; after starting antifungal treatment): 26
number of the 37 asthmatic patients declaring an improvement or complete elimination of asthma symptoms ([9]; after three months of antifungal treatment (amphotericin B irrigation of Example 2)): 28
pulmonary function test before versus after antifungal treatment ([9]; four of the 28 improved patients, all four): improved pulmonary function
patients of the 23 formerly on systemic steroids that took steroids after starting antifungal treatment ([9]; human, in vivo): none
adverse local reaction to nasal irrigations ([10]; third patient, amphotericin B irrigations): burning sensation

SMILES: CCC(C)n1ncn(-c2ccc(N3CCN(c4ccc(OCC5COC(Cn6cncn6)(c6ccc(Cl)cc6Cl)O5)cc4)CC3)cc2)c1=O (stereo not drawn) [Itraconazole, itraconazole]
MIC [11]: 0.25 µg/mL (≈ 0.354 µM)
endoscopic score, left side [10, 17]: 1
endoscopic score, right side [10, 17]: 0
adverse local reaction to nasal irrigations ([10]; third patient, itraconazole irrigations): did not have any adverse local reaction
symptom score after itraconazole irrigations ([10]; third patient, switched because of adverse reaction to amphotericin B, score −1 before): 0
forced expiratory volume in 1 second (FEV1) after treatment ([12]; after seven months of irrigations, 3.34 liter before treatment): 4.27 L
forced vital capacity (FVC) after treatment ([12]; after seven months of irrigations, 3.99 liter before treatment): 4.80 L
maximal forced expiratory flow (FEFmax) after treatment ([12]; after seven months of irrigations, 9.1 liter per second before treatment): 12.6 liter per second
maximum voluntary ventilation (MVV) after treatment ([12]; after seven months of irrigations, 119 liter per minute before treatment): 156 liter per minute
improvement of MVV [12, 18]: 31.90%
increase of FEFmax [12, 18]: 38.46%
increase of FEV1 [12, 18]: 27.84%
increase of FVC [12, 18]: 20.30%
itraconazole that should remain in the bowel lumen [13]: about 50%

MIC [14]: 0.05 µg/mL (≈ 0.0941 µM)
MIC [11]: 3.13 µg/mL (≈ 5.89 µM)
SMILES: CC(=O)N1CCN(c2ccc(OCC3COC(Cn4ccnc4)(c4ccc(Cl)cc4Cl)O3)cc2)CC1 (stereo not drawn) [Ketoconazole, ketoconazole]

Reference: patent US20030091510A1, “METHODS FOR TREATING AND PREVENTING ASTHMA AND NON-INVASIVE FUNGUS-INDUCED RHINOSINUSITIS” (priority 1997, published 2003)
